These results are taken from US8673950B2, “Dihydrooxazol-2-amine derivatives” (Hoffmann-LaRoche Inc., priority 2010, dated 2014).

The target of experiment [1] is rat TAAR1 (Rattus norvegicus (Rat), UniProt Q923Y9). The experiment is described as follows: Radioligand binding assay on rat TAAR1. Particulars: for Ki: rat TAAR1, membranes of stably transfected HEK-293 cells, second value of cell mouse/rat. In short, it runs like this:
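Membranes from HEK293 cells stably expressing rat TAAR1, in 20 mM HEPES-NaOH pH 7.4 with 0.1 mM EDTA. Displacement of ^3[H]-(S)-4-[(ethyl-phenyl-amino)-methyl]-4,5-dihydro-oxazol-2-ylamine, nonspecific binding with 10 μM unlabeled ligand; compounds 10 pM to 10 μM in duplicate, 1 hr at 4° C. Filtration, then scintillation counting.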

Experiment [2] concerns the target mouse TAAR1 (Mus musculus (Mouse), UniProt Q923Y8). Kind of experiment: Radioligand binding assay on mouse TAAR1. The note with it: for Ki: mouse TAAR1, membranes of stably transfected HEK-293 cells, first value of cell mouse/rat.

Sequence of rat TAAR1 (Q923Y9 whole entry): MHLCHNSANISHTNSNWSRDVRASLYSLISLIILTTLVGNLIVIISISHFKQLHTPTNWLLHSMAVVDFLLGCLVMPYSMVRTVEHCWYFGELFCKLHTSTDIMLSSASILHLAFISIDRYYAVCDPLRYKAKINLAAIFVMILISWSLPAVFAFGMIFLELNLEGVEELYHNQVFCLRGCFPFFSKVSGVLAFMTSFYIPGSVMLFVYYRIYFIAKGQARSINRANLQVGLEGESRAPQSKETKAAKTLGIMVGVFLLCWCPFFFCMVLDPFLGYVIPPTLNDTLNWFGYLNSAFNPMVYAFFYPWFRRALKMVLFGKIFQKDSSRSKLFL
Sequence of mouse TAAR1 (Q923Y8 whole entry): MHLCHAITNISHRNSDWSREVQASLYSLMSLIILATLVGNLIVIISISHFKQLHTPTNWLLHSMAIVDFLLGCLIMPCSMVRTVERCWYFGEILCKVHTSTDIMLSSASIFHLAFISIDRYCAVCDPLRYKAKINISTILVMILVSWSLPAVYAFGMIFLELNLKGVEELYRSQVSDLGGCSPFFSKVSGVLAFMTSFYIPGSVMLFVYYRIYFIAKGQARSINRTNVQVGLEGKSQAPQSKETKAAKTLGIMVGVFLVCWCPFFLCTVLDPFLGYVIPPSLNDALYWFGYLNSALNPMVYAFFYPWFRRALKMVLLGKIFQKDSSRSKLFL

The Ki is a measure of affinity in units of concentration, obtained from inhibition or displacement. Read a high Ki as a looser hold on the target. Regarding `NC1=N[C@@H](CCc2ccc(Nc3ncc(C(F)(F)F)cn3)cc2)CO1` [Example 56, (S)-4-(4-(5-(Trifluoromethyl)pyrimidin-2-ylamino)phenethyl)-4,5-dihydrooxazol-2-amine], the Ki in experiment [1] was found to be 0.0039 µM; in experiment [2], 0.0019 µM.

With `CC(C)(C)c1cnc(Nc2ccc(CC[C@H]3COC(N)=N3)cc2)nc1` [Example 57, (S)-4-(4-(5-tert-Butylpyrimidin-2-ylamino)phenethyl)-4,5-dihydrooxazol-2-amine], the Ki in experiment [1] turned out to be 0.0004 µM; in experiment [2] it was 0.0005 µM.

As to `CCC(CC)c1cnc(Nc2ccc(CC[C@H]3COC(N)=N3)cc2)nc1` [Example 58, (S)-4-(4-(5-(Pentan-3-yl)pyrimidin-2-ylamino)phenethyl)-4,5-dihydrooxazol-2-amine], the Ki stood at 0.0001 µM in experiment [1] and 0.0002 µM in experiment [2].

For `N#Cc1cnc(Nc2ccc(CC[C@H]3COC(N)=N3)cc2)nc1` [Example 59, 2-{4-[2-((S)-2-Amino-4,5-dihydro-oxazol-4-yl)-ethyl]-phenylamino}-pyrimidine-5-carbonitrile], the Ki in experiment [1] was found to be 0.0008 µM; in experiment [2], 0.008 µM.

Consider `NC1=N[C@@H](CCc2ccc(Nc3ncc(C4CCC4)cn3)cc2)CO1` [Example 60, (S)-4-(4-(5-Cyclobutylpyrimidin-2-ylamino)phenethyl)-4,5-dihydrooxazol-2-amine], for which the Ki in experiment [1] came to 0.0002 µM; in experiment [2], 0.0003 µM.

As to `CC(C)c1cnc(Nc2ccc(CC[C@H]3COC(N)=N3)cc2)nc1` [Example 61, (S)-4-(4-(5-Isopropylpyrimidin-2-ylamino)phenethyl)-4,5-dihydrooxazol-2-amine], the Ki in experiment [1] amounted to 0.0002 µM; in experiment [2], 0.0007 µM.

In the case of `NC1=N[C@@H](CCc2ccc(NC(c3ccc(Br)cn3)C(F)(F)F)cc2)CO1` (stereo partly drawn) [Example 62, (S)-4-(2-{4-[1-(5-Bromo-pyridin-2-yl)-2,2,2-trifluoro-ethylamino]-phenyl}-ethyl)-4,5-dihydro-oxazol-2-ylamine], the Ki in experiment [1] was determined as 0.0132 µM; in experiment [2], 0.0623 µM.

Turning to `NC1=N[C@@H](CCc2ccc(NC(c3ccc(Cl)cc3)C(F)(F)F)cc2)CO1` (stereo partly drawn) [Example 63, (4S)-4-(4-(1-(4-Chlorophenyl)-2,2,2-trifluoroethylamino)phenethyl)-4,5-dihydrooxazol-2-amine], the Ki in experiment [1] is 0.0022 µM; in experiment [2] it was 0.0084 µM.

As to `NC1=N[C@@H](CCc2ccc(N[C@@H](c3ccc(Cl)cc3)C(F)(F)F)cc2)CO1` [Example 64, (+)-(S)-4-(4-((S)-1-(4-Chlorophenyl)-2,2,2-trifluoroethylamino)phenethyl)-4,5-dihydrooxazol-2-amine], the Ki in experiment [1] is 0.002 µM; in experiment [2], 0.063 µM.

With `NC1=N[C@@H](CCc2ccc(N[C@H](c3ccc(Cl)cc3)C(F)(F)F)cc2)CO1` [Example 65, (−)-(S)-4-(4-((R)-1-(4-chlorophenyl)-2,2,2-trifluoroethylamino)phenethyl)-4,5-dihydrooxazol-2-amine], the Ki in experiment [1] stood at 0.0032 µM; in experiment [2], 0.0244 µM.

For `NC1=N[C@@H](CCc2ccc(NC(c3cccc(F)c3)C(F)(F)F)cc2)CO1` (stereo partly drawn) [Example 66, (4S)-4-(4-(2,2,2-Trifluoro-1-(3-fluorophenyl)ethylamino)phenethyl)-4,5-dihydrooxazol-2-amine], the figures for the Ki in experiment [1] and in experiment [2] were 0.0064 µM and 0.023 µM, respectively.

For `NC1=N[C@@H](CCc2ccc(NC(c3ccc(C(F)(F)F)cc3)C(F)(F)F)cc2)CO1` (stereo partly drawn) [Example 67, (4S)-4-(4-(2,2,2-Trifluoro-1-(4-(trifluoromethyl)phenyl)ethylamino)phenethyl)-4,5-dihydrooxazol-2-amine], the Ki was found to be 0.0084 µM in experiment [1] and 0.0412 µM in experiment [2].

As for `NC1=N[C@@H](CCc2ccc(NC(c3ccc(Cl)cn3)C(F)(F)F)cc2)CO1` (stereo partly drawn) [Example 68, (4S)-4-(4-(1-(5-Chloropyridin-2-yl)-2,2,2-trifluoroethylamino)phenethyl)-4,5-dihydrooxazol-2-amine], the Ki was determined as 0.0265 µM in experiment [1] and 0.0651 µM in experiment [2].

Take `NC1=N[C@@H](CCc2ccc(NC(c3cc(Cl)cc(Cl)c3)C(F)(F)F)cc2)CO1` (stereo partly drawn) [Example 69, (4S)-4-(4-(1-(3,5-Dichlorophenyl)-2,2,2-trifluoroethylamino)phenethyl)-4,5-dihydrooxazol-2-amine]: the Ki in experiment [1] amounted to 0.0407 µM; in experiment [2], 0.0355 µM.

Regarding `COc1cccc(C(Nc2ccc(CC[C@H]3COC(N)=N3)cc2)C(F)(F)F)n1` (stereo partly drawn) [Example 70, (4S)-4-(4-(2,2,2-Trifluoro-1-(6-methoxypyridin-2-yl)ethylamino)phenethyl)-4,5-dihydrooxazol-2-amine], the Ki in experiment [1] was found to be 0.0205 µM; in experiment [2], 0.134 µM.

Consider `NC1=N[C@@H](CCc2ccc(Nc3ncc(Cl)cn3)nc2)CO1` [Example 71, {5-[2-((S)-2-Amino-4,5-dihydro-oxazol-4-yl)-ethyl]-pyridin-2-yl}-(5-chloro-pyrimidin-2-yl)-amine], for which the Ki in experiment [1] was found to be 0.0011 µM; in experiment [2], 0.0137 µM.

As for `Cc1cc(CC[C@H]2COC(N)=N2)ccc1Nc1ncc(Cl)cn1` [Example 72, {4-[2-((S)-2-Amino-4,5-dihydro-oxazol-4-yl)-ethyl]-2-methyl-phenyl}-(5-chloro-pyrimidin-2-yl)-amine], the Ki in experiment [1] stood at 0.0007 µM; in experiment [2], 0.0019 µM.

As to `NC1=N[C@@H](CCc2ccc(Nc3ncc(OCC(F)(F)F)cn3)cc2)CO1` [Example 73, (S)-4-(4-(5-(2,2,2-Trifluoroethoxy)pyrimidin-2-ylamino)phenethyl)-4,5-dihydrooxazol-2-amine], the Ki in experiment [1] was 0.0028 µM; in experiment [2], 0.02 µM.

Consider `CS(=O)(=O)c1cnc(Nc2ccc(CC[C@H]3COC(N)=N3)cc2)nc1` [Example 74, (S)-4-(4-(5-(Methylsulfonyl)pyrimidin-2-ylamino)phenethyl)-4,5-dihydrooxazol-2-amine], for which the results for the Ki in experiment [1] and in experiment [2] were 0.0146 µM and 0.046 µM, respectively.

Turning to `C[S+]([O-])c1cnc(Nc2ccc(CC[C@H]3COC(N)=N3)cc2)nc1` (stereo partly drawn) [Example 75, (4S)-4-(4-(5-(Methylsulfinyl)pyrimidin-2-ylamino)phenethyl)-4,5-dihydrooxazol-2-amine], the values for the Ki in experiment [1] and in experiment [2] were 0.104 µM and 0.48 µM, respectively.

A word on the Kd: it is the concentration at which binding is half-saturated. On to `CCN(C[C@H]1COC(N)=N1)c1ccccc1` [^3[H]-(S)-4-[(ethyl-phenyl-amino)-methyl]-4,5-dihydro-oxazol-2-ylamine, reference compound], for which the Kd was about 2.3 nM in experiment [1] (rat TAAR1 membranes, saturation curve, read-out: dissociation constant (Kd) of the radioligand) and about 0.7 nM in experiment [2] (mouse TAAR1 membranes, saturation curve, read-out: dissociation constant (Kd) of the radioligand).
